One experiment has as its system OA synovial cells. Description: PDTC inhibition of IL-1 and GPRP induction of ICAM-1 (ELISA). In kind it is cell-based, human. Particulars: PDTC pre-incubation 1.5 hours, IL-1 or GPRP overnight, ± SD, triplicate. An excerpt:
(§1) NF-kappaB activation is already well known to affect a broad array of immediate-early gene products, such as TNF, interleukins, chemokines and colony stimulating factors; genes that are tightly regulated during inflammation and wound healing. […] PDTC is an anti-oxidant that prevents NF-kappaB activation and its translocation to the nucleus (Reference 26). […] [table]

For the next experiment, the system named is RA synovial cells. Described as above. In kind it is cell-based, human. Particulars: for ICAM-1 O.D. 492: PDTC pre-incubation 1.5 hours, IL-1 or GPRP overnight, ± SD, triplicate.
Excerpt: as §1

The next experiment relates to RA patients. Particulars: double blind clinical trial (Reference 29); cited from earlier work.
Experiment [1] relates to RA synovial fibroblasts. Description: ICAM-1 cell-ELISA (O.D. 492). In kind it is cell-based, human. Particulars: for ICAM-1 O.D. 492: overnight, IL-1 0.5 ng/ml, GPRP or GPRP-amide 1 mg/ml, fibrinogen receptor peptide 0.1 mg/ml, FPA, FPB 10^−4 M; for Effect on ICAM-1 induction: synovial cell incubation with coagulation-related peptides. (In general: In an ELISA, binding on a coated surface is turned into a signal by an enzyme label.)

A further experiment relates to foreskin fibroblasts. The experiment can be described thus: ICAM-1 cell-ELISA (O.D. 492). Particulars: overnight; for ICAM-1 O.D. 492: Foreskin line, IL-1 0.5 ng/ml, GPRP or GPRP-amide 1 mg/ml, fibrinogen receptor peptide 0.1 mg/ml, FPA, FPB 10^−4 M. In kind it is cell-based, human.
Experiment [2] concerns synovial cells from patients with osteoarthritis (OA). The experiment can be described thus: ICAM-1 ELISA (O.D. 492). The class given is cell-based, human. Particulars: OA line; overnight; IL-1 0.5 ng/ml, GPRP or GPRP-amide 1 mg/ml, fibrinogen receptor peptide 0.1 mg/ml, FPA, FPB 10^−4 M.
For experiment [3], the system named is RA synovial fibroblasts. Description: Binding of biotinylated peptide by flow cytometry. Also noted: species or system human. Particulars: RA #16, Avidin-FITC. The text has this:
Table 9 illustrates an analysis of the binding of biotinylated amino acid sequence 17-28 of human fibrinogen Aα Chain (SAC[KBtn]) to RA synovial fibroblasts by Flow Cytometry. The biotinylated control peptide (KREE-SEQ ID NO:3) represents corresponding sequences derived from the B/beta chain of fibrinogen following removal of Fibrinopeptide B.
Background: A flow cytometer gives signals particle by particle.

The next experiment deals with fibrin polymerization. Particulars: cited from earlier work.
Chain of fibrin polymerization (P02679 27-453, one chain of several): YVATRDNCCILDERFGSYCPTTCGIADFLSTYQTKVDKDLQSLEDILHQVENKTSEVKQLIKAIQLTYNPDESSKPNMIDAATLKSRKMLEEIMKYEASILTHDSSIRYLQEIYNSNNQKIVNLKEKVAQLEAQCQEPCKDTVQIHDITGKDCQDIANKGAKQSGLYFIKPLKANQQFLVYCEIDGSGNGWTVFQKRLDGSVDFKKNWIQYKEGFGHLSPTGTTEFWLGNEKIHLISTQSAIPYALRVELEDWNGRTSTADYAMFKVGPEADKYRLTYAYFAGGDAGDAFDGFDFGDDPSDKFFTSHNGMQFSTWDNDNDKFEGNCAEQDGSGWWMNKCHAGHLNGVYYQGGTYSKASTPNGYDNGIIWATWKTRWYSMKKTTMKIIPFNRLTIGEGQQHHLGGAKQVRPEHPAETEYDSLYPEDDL
Chain of fibrin polymerization (P02671 20-639 isoform P02671-2 partner limits assumed, one chain of several): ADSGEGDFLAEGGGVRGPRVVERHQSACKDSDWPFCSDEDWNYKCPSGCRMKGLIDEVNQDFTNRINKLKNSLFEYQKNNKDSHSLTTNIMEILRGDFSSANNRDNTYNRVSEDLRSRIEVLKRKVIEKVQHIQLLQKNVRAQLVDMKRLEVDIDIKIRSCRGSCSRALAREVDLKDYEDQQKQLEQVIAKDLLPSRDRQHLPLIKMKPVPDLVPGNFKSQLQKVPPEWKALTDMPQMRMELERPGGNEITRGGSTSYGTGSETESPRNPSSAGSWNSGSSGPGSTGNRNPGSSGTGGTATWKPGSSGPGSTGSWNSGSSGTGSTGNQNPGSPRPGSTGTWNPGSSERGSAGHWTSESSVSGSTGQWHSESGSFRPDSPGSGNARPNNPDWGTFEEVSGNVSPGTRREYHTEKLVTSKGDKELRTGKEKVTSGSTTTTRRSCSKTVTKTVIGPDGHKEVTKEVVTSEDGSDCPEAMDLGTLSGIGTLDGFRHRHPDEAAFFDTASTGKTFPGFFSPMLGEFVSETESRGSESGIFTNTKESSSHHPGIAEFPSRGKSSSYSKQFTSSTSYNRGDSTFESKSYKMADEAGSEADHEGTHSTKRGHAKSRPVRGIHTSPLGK
The test system of a further experiment is Synovial cells. Description: SAC competition assay by flow cytometry. The class given is binding, human. Particulars: for Mean (fluorescence of bound SAC[KBtn]): Avidin-FITC. An excerpt: Thus, labeled peptide could facilitate the isolation, identification and characterization of its receptor, through standard immunological techniques such as immunohistochemistry, flow cytometry and immunoprecipitation.

The subject of experiment [4] is RA derived synovial cells. Description: In vitro T cell adhesion assay. In kind it is cell-based, human. To be noted: IL-1 beta 1 ng/ml overnight, ± SD, triplicate wells.
Experiment [5] has as its system OA derived synovial cells. Description: In vitro T cell adhesion assay. The class given is cell-based, human. Particulars: OA line 15; IL-1 beta 1 ng/ml overnight; ± SD, triplicate wells.
Experiment [6] relates to foreskin fibroblast cells. The experiment can be described thus: In vitro T cell adhesion assay. In kind it is cell-based, human. Particulars: Foreskin line; IL-1 beta 1 ng/ml overnight; ± SD, triplicate wells.
For another experiment, the system named is monocytes. Particulars: monocytes stimulated with PHA; for comparison; cited from earlier work.
Experiment [7] has as its system RA synovial fibroblasts. Description: GRO-alpha ELISA on cell culture supernatants. The class given is cell-based, human. Particulars: RA line 7. As for the experimental part:
I used commercial ELISA kits to assay cell culture supernatants of RA fibroblasts that were cultured for both 24 and 48 hours with or without peptide.

Setting [8] is: unlabeled competitor 2.5 mg for 3 hours, then labeled SAC[KBtn] for 1 hour.

Where no end group is shown, it is not given here. [ ]: non-standard residue; d: D form. Pen = CC(C)(S)[C@H](N)C(=O)O

Regarding `S=C(S)N1CCCC1` [PDTC, pyrrolidinedithio-carbamate], the “ICAM-1 O.D. 492” value is listed as 0.65 ± .03 in the experiment on OA synovial cells (OA line 2), 0.55 ± .04 in the experiment with OA synovial cells (OA line 8), 0.75 ± .06 in the experiment on RA synovial cells (RA line 5) and 0.61 ± .02 in the experiment on RA synovial cells (RA line 6). Further, the “Effect on increase in ICAM-1 expression induced by Interleukin-1 and by GPRP” value in the experiment with RA synovial cells (inclusion of PDTC) is on record as “stopped the entire increase in ICAM-1 expression”.
For the molecule `C[C@]12Cc3c[nH]nc3C[C@@H]1CC[C@@H]1[C@@H]2CC[C@@]2(C)[C@H]1CC[C@]2(C)O` [stanozolol], the “Clinical outcome in RA patients” value in the experiment on RA patients is reported as “clinical benefit”.
Take “Ac-[Pen]RGDC (cysteine pairing not given here) [Fib. Recept. Pept., reference compound]”: the “ICAM-1 O.D. 492” value with RA synovial fibroblasts [1] (RA line 1) is recorded as 0.56 ± .02; with RA synovial fibroblasts [1] (RA line 2) it was 0.42 ± .01; in the experiment on foreskin fibroblasts, 0.73 ± .08; in [2], 0.38 ± .02.
In the case of “FPA: amino acids 1 through 16 of the fibrinogen A/alpha chains cleaved off by thrombin (ADSGEGDFLAEGGGVR; Fibrinopeptide A; UniProt P02671 20-35, looked up) [reference compound]”, the “ICAM-1 O.D. 492” value is recorded as 0.61 ± .05 in the experiment with RA synovial fibroblasts [1] (RA line 1), 0.43 ± .03 in the experiment with RA synovial fibroblasts [1] (RA line 2), 0.69 ± .02 with foreskin fibroblasts and 0.31 ± .005 in experiment [2]. In the experiment with RA synovial fibroblasts [1], the “Effect on ICAM-1 induction” value is given as “no effect”.
For “FPB: Fibrinopeptide B, coagulation-related peptide (QGVNDNEEGFFSAR; ends and bridges not checked; UniProt P02675 31-44, looked up) [reference compound]” the same measures were 0.67 ± .04, 0.47 ± .02, 0.80 ± .02, 0.41 ± .04 and “no effect”.
On to “GHRPLDKKREE[KBtn] (GHRPLDKKREEK) [KREE [KBtn], biotinylated control peptide derived from the B/beta chain of fibrinogen, reference compound]”, for which, in the experiment on RA synovial fibroblasts [3] (100 ug biotinylated peptide), the “% Cells Positive” value was 10.6% and the “Mean Fluorescent Channel” value is 20.37.
With “GPRP-amide: GPRP with the carboxyl group at the end of Pro4 changed to an amide group (OH to NH2) (GPRP-NH2)”, the “ICAM-1 O.D. 492” value is given as 0.65 ± .02 in the experiment with RA synovial fibroblasts [1] (RA line 1), 0.49 ± .02 with RA synovial fibroblasts [1] (RA line 2), 0.80 ± .01 in the experiment with foreskin fibroblasts and 0.44 ± .01 in experiment [2]. Further, the “Induction of ICAM-1 in synovial fibroblasts” value with RA synovial fibroblasts [1] (amide analog substituted for GPRP) was “totally ineffective”. Further, the “Effectiveness at inhibiting polymerization relative to H-Gly-Pro-Arg-Pro-OH” value in the experiment with fibrin polymerization (Reference 20) is “approximately three and one-half”.
Consider “GPRVVERHQSAC (Unknown. Obtained from a commercial source.)”, for which the “Competition with biotin-labeled SAC for binding to human synovial fibroblasts” value in the experiment with Synovial cells (unlabeled competitor) is “can compete”. In the experiment on Synovial cells (setting [8]), the “Mean (fluorescence of bound SAC[KBtn])” value is on record as 36.30.
With “GPRVVERHQSAC[KBtn] (GPRVVERHQSACK) [SAC [KBtn]]”, in the experiment on RA synovial fibroblasts [3] (100 ug biotinylated peptide), the “% Cells Positive” value was found to be 86.3% and the “Mean Fluorescent Channel” value is given as 257.9. Moreover, in the experiment on RA synovial fibroblasts [3] (200 ug biotinylated peptide), the “% Cells Positive” value is on record as 80.0% and the “Mean Fluorescent Channel” value was 125.1. Besides, the “Mean (fluorescence of bound SAC[KBtn])” value with Synovial cells (labeled SAC[KBtn] without competitor) worked out at 51.20.
Turning to Gly-Pro-Arg [reference compound], the “Inhibition of fibrin polymerization” value in the experiment on fibrin polymerization (literature (Reference 25)) is “functions well as a polymerization inhibitor”.
As to “IL-1: cytokine, an inducer of ICAM-1, positive control [reference compound]”, the “ICAM-1 O.D. 492” value in the experiment on RA synovial fibroblasts [1] (RA line 1) is 1.74 ± .08; in the experiment with RA synovial fibroblasts [1] (RA line 2) it was 1.18 ± .03; in the experiment with foreskin fibroblasts, 1.77 ± .13; in experiment [2] it was 1.36 ± .03; with OA synovial cells (OA line 2), 1.60 ± .03; in the experiment on OA synovial cells (OA line 8), 1.51 ± .05. The “ICAM-1 O.D. 492” value in the experiment on RA synovial cells (RA line 5) is listed as 1.88 ± .05; in the experiment with RA synovial cells (RA line 6), 1.80 ± .04. Further, the “Adherent T cell numbers” value was found to be 116 ± 14 in experiment [4] (RA line 7), 58 ± 21 in [4] (RA line 8), 66 ± 19 in [5] and 94 ± 16 in experiment [6].
In the case of phytohemagglutinin, the “Increase of IL-8 production” value with monocytes is recorded as “approximately three”.

B1: Fibrinogen: plasma protein precursor of fibrin; unlabeled competitor in Table 10 (protein)
chain 1: ADSGEGDFLAEGGGVRGPRVVERHQSACKDSDWPFCSDEDWNYKCPSGCRMKGLIDEVNQDFTNRINKLKNSLFEYQKNNKDSHSLTTNIMEILRGDFSSANNRDNTYNRVSEDLRSRIEVLKRKVIEKVQHIQLLQKNVRAQLVDMKRLEVDIDIKIRSCRGSCSRALAREVDLKDYEDQQKQLEQVIAKDLLPSRDRQHLPLIKMKPVPDLVPGNFKSQLQKVPPEWKALTDMPQMRMELERPGGNEITRGGSTSYGTGSETESPRNPSSAGSWNSGSSGPGSTGNRNPGSSGTGGTATWKPGSSGPGSTGSWNSGSSGTGSTGNQNPGSPRPGSTGTWNPGSSERGSAGHWTSESSVSGSTGQWHSESGSFRPDSPGSGNARPNNPDWGTFEEVSGNVSPGTRREYHTEKLVTSKGDKELRTGKEKVTSGSTTTTRRSCSKTVTKTVIGPDGHKEVTKEVVTSEDGSDCPEAMDLGTLSGIGTLDGFRHRHPDEAAFFDTASTGKTFPGFFSPMLGEFVSETESRGSESGIFTNTKESSSHHPGIAEFPSRGKSSSYSKQFTSSTSYNRGDSTFESKSYKMADEAGSEADHEGTHSTKRGHAKSRPV
chain 2: QGVNDNEEGFFSARGHRPLDKKREEAPSLRPAPPPISGGGYRARPAKAAATQKKVERKAPDAGGCLHADPDLGVLCPTGCQLQEALLQQERPIRNSVDELNNNVEAVSQTSSSSFQYMYLLKDLWQKRQKQVKDNENVVNEYSSELEKHQLYIDETVNSNIPTNLRVLRSILENLRSKIQKLESDVSAQMEYCRTPCTVSCNIPVVSGKECEEIIRKGGETSEMYLIQPDSSVKPYRVYCDMNTENGGWTVIQNRQDGSVDFGRKWDPYKQGFGNVATNTDGKNYCGLPGEYWLGNDKISQLTRMGPTELLIEMEDWKGDKVKAHYGGFTVQNEANKYQISVNKYRGTAGNALMDGASQLMGENRTMTIHNGMFFSTYDRDNDGWLTSDPRKQCSKEDGGGWWYNRCHAANPNGRYYWGGQYTWDMAKHGTDDGVVWMNWKGSWYSMRKMSMKIRPFFPQQ
chain 3: YVATRDNCCILDERFGSYCPTTCGIADFLSTYQTKVDKDLQSLEDILHQVENKTSEVKQLIKAIQLTYNPDESSKPNMIDAATLKSRKMLEEIMKYEASILTHDSSIRYLQEIYNSNNQKIVNLKEKVAQLEAQCQEPCKDTVQIHDITGKDCQDIANKGAKQSGLYFIKPLKANQQFLVYCEIDGSGNGWTVFQKRLDGSVDFKKNWIQYKEGFGHLSPTGTTEFWLGNEKIHLISTQSAIPYALRVELEDWNGRTSTADYAMFKVGPEADKYRLTYAYFAGGDAGDAFDGFDFGDDPSDKFFTSHNGMQFSTWDNDNDKFEGNCAEQDGSGWWMNKCHAGHLNGVYYQGGTYSKASTPNGYDNGIIWATWKTRWYSMKKTTMKIIPFNRLTIGEGQQHHLGGAKQAGDV
For the molecule B1, in the experiment on RA synovial fibroblasts [7], the GRO-alpha came out at 8000 pg/mL. The “GRO-alpha Fold Increase” value in the experiment with RA synovial fibroblasts [7] (versus control) is 145X. In the experiment on Synovial cells (setting [8]), the “Mean (fluorescence of bound SAC[KBtn])” value amounted to 21.63.

B2: interferon γ: positive control for foreskin fibroblasts (protein, UniProt P01579 24-161, looked up)
Interferon gamma: QDPYVKEAENLKKYFNAGHSDVADNGTLFLGILKNWKEESDRKIMQSQIVSFYFKLFKNFKDDQSIQKSVETIKEDMNVKFFNSNKKKRDDFEKLTNYSVTDLNVQRKAIHELIQVMAELSPAAKTGKRKRSQMLFRG
For the molecule B2, the “ICAM-1 expression O.D. 492” value in the experiment with foreskin fibroblasts (Foreskin fibroblasts, fibrin clots 0.6 mg/ml, GPRP 1 mg/ml or interferon γ 200 U/ml, mean ± SD) is reported as 1.57 ± .13.
